Test results from paper PMC9503518, “Antibacterial and Antifungal Properties of a Novel Antimicrobial Peptide GK-19 and Its Application in Skin and Soft Tissue Infections Induced by MRSA or Candida albicans” (Pharmaceutics, 2022).
In brackets after ≈: the same amount, converted by molar mass. Where a name gives a salt, the structure may show the parent alone. Where no end group is shown, it is not given here.

Experiments:
[1] = tested on: Candida albicans (C. albicans, ATCC90028); assay type: cell-based; conditions: 1 × 10^6 CFU/mL, PDB, 12 h, peptide 0-20 μM, absorbance at 600 nm, n = 5
Text: (§1) Pseudomonas aeruginosa (P. aeruginosa, ATCC27853), Methicillin-Resistant Staphylococcus aureus (MRSA, 2104270609, clinically isolated strain), Escherichia coli (E. coli, ATCC25922), Klebsiella pneumoniae (K. pneumoniae, ATCC700603), Enterococcus faecalis (E. faecalis, ATCC29212), Candida krusei (C. krusei, ATCC6258), Candida albicans (C. albicans, ATCC90028), and Candida glabrata (C. glabrata, ATCCMYA-2950) were obtained from the First Affiliated Hospital of Xi’an Jiaotong University. Bacterial strains were cultured in MHA or MHB. Fungal strains were cultured in PDA or PDB.
(§2) Strains were incubated in MHB or PDB. After growing for 12–16 h at 37 °C, 200 rpm, 100 μL of 1 × 10^6 CFU/mL of the strains was seeded into 96-well plates and incubated with fresh culture medium containing various antimicrobial peptides (peptide concentration: 0, 0.5, 1.0, 2.0, 3.0, 5.0, 10, 15 or 20 μM) for 12 h. Each concentration was repeated five times. Absorbance at 600 nm was measured using the Multilabel Reader Varioskan Flash (Thermo Fisher). […] (1)

[2] = tested on: Candida glabrata (C. glabrata, ATCCMYA-2950); assay type: cell-based; conditions: 1 × 10^6 CFU/mL, PDB, 12 h, peptide 0-20 μM, absorbance at 600 nm, n = 5
Text: as §1, §2

[3] = tested on: Candida krusei (C. krusei, ATCC6258); assay type: cell-based; conditions: 12 h, absorbance at 600 nm, n = 5
Text: as §1, §2

[4] = tested on: Enterococcus faecalis (E. faecalis, ATCC29212); assay type: cell-based; conditions: 1 × 10^6 CFU/mL, MHB, 12 h, peptide 0-20 μM, absorbance at 600 nm, n = 5
Text: as §1, §2

[5] = tested on: Escherichia coli (E. coli, ATCC25922); assay type: cell-based; conditions: 1 × 10^6 CFU/mL, MHB, 12 h, peptide 0-20 μM, absorbance at 600 nm, n = 5
Text: as §1, §2

[6] = tested on: Klebsiella pneumoniae (K. pneumoniae, ATCC700603); assay type: cell-based; conditions: 1 × 10^6 CFU/mL, MHB, 12 h, peptide 0-20 μM, absorbance at 600 nm, n = 5
Text: as §1, §2

[7] = tested on: Methicillin-Resistant Staphylococcus aureus (MRSA, 2104270609, clinically isolated strain); assay type: cell-based; conditions: 1 × 10^6 CFU/mL, MHB, 12 h, peptide 0-20 μM, absorbance at 600 nm, n = 5
Text: as §1, §2

[8] = tested on: Pseudomonas aeruginosa (P. aeruginosa, ATCC27853); assay type: cell-based; conditions: 1 × 10^6 CFU/mL, MHB, 12 h, peptide 0-20 μM, absorbance at 600 nm, n = 5
Text: as §1, §2

[9] = Peptide stability in water by HPLC; assay type: physicochemical; conditions: 10 mg/mL in water, 37 °C, 200 rpm, 0 and 48 h, HPLC 220 nm, repeated three times
Procedure: (§3) Antimicrobial peptides were dissolved in water or rat serum with a concentration of 10 mg/mL. The solution was incubated at 37 °C, 200 rpm for different time periods, and diluted 50 times for the HPLC analysis. In water, the incubation time was 0 h and 48 h. In rat serum, the incubation time was 0, 2, 4, 7, 12, 24 or 48 h. Each incubation condition was repeated three times. HPLC was conducted on a Waters HPLC system, which consisted of a 2996 photodiode array detector, a 2695 separation module and a temperature control column oven. Column: Sinochrom ODS-BP, 5 μm, 4.6 × 250 mm (Dalian Elite Analytical Instruments Co., Ltd., Dalian, China). Mobile phase: A: 100% ACN + 0.1% TFA; B: 100% Water + 0.1% TFA. Gradient elution: 0–20 min, 95% B–100% A; 20–25 min, 100% A. Detection wavelength: 220 nm. Flow rate: 1 mL/min. Sample volume: 50 μL (0.2 mg/mL).

[10] = Peptide stability in rat serum by HPLC; assay type: in vitro ADME; conditions: 10 mg/mL in rat serum, 37 °C, 200 rpm, repeated three times
Procedure: as §3

[11] = tested on: MRSA
Procedure: (§4) The scalded mice models combined with SSTIs by MRSA or C. albicans were constructed. Fifty normal male Kunming mice (5–6 weeks old) weighing ~25 g were anesthetized by isoflurane using a small animal anesthesia machine (R640, RWD Life Science, China). After skin preparation and disinfection, a custom-made circular iron (diameter: 8 mm) (shown in Figure S4) was applied to both sides of the spine of the mice for 10 s at 300 °C, resulting in four scalded wounds. Mice were injected subcutaneously with 5 mg/kg meloxicam (Aladdin, Shanghai, China) for four days (once per day) after scalding for pain relief. Two days after scalding, the skin tissues of the scalded areas were removed carefully, and about 30 μL of 1 × 10^7 CFU/mL of MRSA or C. albicans was applied evenly onto the surfaces of the wounds. The mice were returned to the original feeding environment after the microbial fluid was completely absorbed (1.5–2 h), with two mice per cage. Corncob granules with SPF level were used as padding.
(§5) Two days after microbe inoculating, the scalded wounds of each mouse were divided into four groups randomly. […] The mice were returned to the original feeding environment after the solutions were completely absorbed. The treatment lasted for 12–16 days. Photographs of the wound areas were taken every two days using an iPhone 11 and the wound areas were measured every two days using Image J software (152-win-java8, Bethesda, MD, USA). The average wound areas on day two were used as the reference (100% unhealed) to normalized wound areas. Skin tissues of the wound areas were removed carefully at different time points (n = 5 for each time point) and weighted in a sterile environment. For MRSA infection, 10 mg of the wound tissues was dispersed into 1000 μL of sterile saline solution and the tissue solution was ground into suspension in a tissuelyser (Tissuelyser LT, Servicebio). Then, the tissue suspension was diluted with sterile saline solution 10 times and plated on MHA with a sample volume of 50 μL. For C. albicans infection, 10 mg of the wound tissues was dispersed into 200 μL of sterile saline solution and the tissue solution was also ground into suspension in the tissuelyser. The tissue suspension was then plated on PDA directly with a sample volume of 20 μL. After culturing overnight, the colonies were counted using Image J software or human eyes. In addition, the skin tissues of the wound area were removed carefully at different time points and dispersed into a 4% paraformaldehyde solution for further use.
(§6) The hematoxylin and eosin staining in this study was carried out by Servicebio (Wuhan, China). Briefly, the obtained skin tissues were soaked in 4% paraformaldehyde solution (Beyotime, China) and fixed for more than 24 h. Then, they were dehydrated and embedded with paraffin, and tissue sections having thicknesses of 4 μm were prepared. After deparaffinization and rehydration, hematoxylin and eosin staining was performed.

[12] = unstable in serum; cited from earlier work
Text: The venom of scorpions, which has been proven to kill Gram-negative and Gram-positive bacteria, fungi, viruses and even tumor cells, are a rich source of antimicrobial peptides. Androctonus amoreuxi Antimicrobial Peptide 1 (AamAP1), identified from the venom-derived cDNA library of the North African scorpion, Androctonus amoeruxi, is a new type of host defense peptide. With broad-spectrum antimicrobial properties, it has been posited that AamAP1 kills bacteria cells through membrane disruption, which will not induce bacterial resistance. However, there are still some disadvantages in us ...

[13] = tested on: C. albicans; conditions: topical 50 μM twice a day
Procedure: as §4, §5, §6

[14] = C. albicans-infected scald wounds, mice, n = 10
[15] = colony count of wound tissue on PDA, n = 5

Compound: CC[C@H](C)[C@H](NC(=O)[C@H](C)NC(=O)[C@H](Cc1c[nH]cn1)NC(=O)[C@@H]1CCCN1C(=O)[C@@H](NC(=O)[C@H](CC(C)C)NC(=O)[C@H](CO)NC(=O)[C@H](Cc1ccccc1)NC(=O)[C@H](CC(C)C)NC(=O)[C@@H](N)Cc1ccccc1)[C@@H](C)CC)C(=O)NCC(=O)NCC(=O)N[C@@H](CC(C)C)C(=O)N[C@H](C(=O)N[C@@H](CO)C(=O)N[C@@H](C)C(=O)N[C@@H](Cc1ccccc1)C(=O)N[C@@H](CCCCN)C(=O)O)[C@@H](C)CC [AamAP1, Androctonus amoreuxi Antimicrobial Peptide 1, reference compound]
- Minimum inhibitory concentration (MIC), C. albicans [1]: > 20 µM
- Minimum inhibitory concentration (MIC), C. glabrata [2]: > 20 µM
- Minimum inhibitory concentration (MIC), C. krusei ([3]; 1 × 10^6 CFU/mL, PDB, peptide 0-20 μM): 20 µM (≈ 38.6 µg/mL)
- inhibition of C. krusei ([3]; within 0-20 μM): 90%
- Minimum inhibitory concentration (MIC), E. faecalis [4]: > 20 µM
- Minimum inhibitory concentration (MIC), E. coli [5]: > 20 µM
- Minimum inhibitory concentration (MIC), K. pneumoniae [6]: > 20 µM
- Minimum inhibitory concentration (MIC), MRSA [7]: > 20 µM
- Minimum inhibitory concentration (MIC), P. aeruginosa [8]: > 20 µM
- time for which structural stability was retained in water [9]: ≥ 48 h
- metabolised at 7 h, 10 mg/mL ([10]; 7 h, HPLC peak area 220 nm, read-out: peptide degraded after seven hours of co-incubation with rat serum): > 65%
- change of HPLC peak after incubation in rat serum for two hours ([10]; two hours, HPLC 220 nm): position of its chromatographic peak moved backward
- MRSA suppressed (inhibition rate) at day eight compared with saline solution groups ([11]; mouse, in vivo, 2 h, 50 μM): more than 90%
- predicted half-life [12]: less than two hours

Compound: CCC[C@@H]1C[C@@H](C(=O)N[C@@H]([C@H]2O[C@H](SC)[C@H](O)[C@@H](O)[C@H]2O)[C@H](C)Cl)N(C)C1 [CDHC, clindamycin hydrochloride]
- wound area healed on day eight ([11]; MRSA-infected scald wounds, mice, topical 50 μM twice a day, day 2 area = 100% unhealed, n = 10): more than 45%
- unhealed wounds on day 16 ([11]; MRSA-infected scald wounds, mice, topical 50 μM twice a day, n = 10): completely disappeared

Compound: OC(Cn1cncn1)(Cn1cncn1)c1ccc(F)cc1F [FCZ, fluconazole]
- area of the wounds healed on day 10 [13, 14]: more than 95%
- unhealed wounds on day 12 [13, 14]: completely disappeared
- C. albicans in wound tissue on day 12 [13, 15]: no C. albicans detected
- C. albicans suppressed (inhibition rate) at day eight compared with saline solution groups [13, 15]: ~ 98%

Compound: FLFKLIPKAIKKLISKFK [AamAP1-Lysine]
- predicted half-life [12]: less than two hours
